Counter-ions that a name gives are not always drawn.
How the values were obtained:
[1] = 60° C., one hour (FIG. 3)
Experimental: (§1) Seaweed Hydrolysis. […] The samples were heated to 60° C. Approximately 0.1 grams of seaweed was measured and added to each sample. The acid/seaweed mixtures were placed in an incubator set at 60° C. for one hour. At twenty minute intervals, 0.4 mL were taken from the samples and neutralized to a high pH (>10) with 0.6 mL of a concentrated aqueous NaOH solution.
(§2) Seaweed DNS Assay. To each of the neutralized mixtures, 0.2 mL of DNS solution (1% dinitrosalicyclic acid, 0.02% phenol, 0.25 M NaOH) was added. These samples were then placed in boiling water for approximately ten minutes until the brown color remained stable. The samples were then removed and 0.4 mL of a 40% potassium sodium tartrate solution was added to stabilize the color. The solutions were allowed to cool to room temperature and then the absorbance was recorded at 570 nm.

[2] = for rate in hydrolyzing switch grass: 60° C., one hour (FIG. 4)
Experimental: as §1, with “Switch Grass” for “Seaweed”, “switch grass” for “seaweed”, “acid/switch grass” for “acid/seaweed”, “0, 10, 20, 40, and 60 minutes,” for “twenty minute intervals,”
as §2, with “Switch Grass” for “Seaweed”, “Then 0.2 mL of each sample was mixed with 0.2” for “The samples were then removed and 0.4”, “and 1 mL of deionized water.” for “was added to stabilize the color.”

[3] = Cellulose (carboxymethylcellulose) hydrolysis, DNS sugar assay; conditions: carboxymethylcellulose (FIG. 2, FIG. 5)
Source text: Dinitrosalicyclic Acid Sugar Assay. The DNS sugar assay utilizes the reduction of dinitrosalicyclic acid by simple monosaccharides to create a change in color, respective the concentration of sugar in each sample (Rivers). A 1% dinitrosalicyclic acid solution was created with 0.25 M NaOH and […]. Another solution of 40% Sodium Potassium Tartrate was made to act as a color stabilizer to be added to the sample after the reaction. This procedure requires the experimental sample to be mixed with the DNS Assay solution and heated at approximately 100° C. for ten minutes. After the colorimetric reaction has occurred, the sodium potassium tartrate solution is added to stabilize the color change. The resulting color change can be measured using the wavelength of 570 nm.
Cellulose Hydrolysis. 5 mL of each acid was added to a glass container. Then, 0.1 grams of carboxymethylcellulose was slowly poured in to each sample. The containers were then capped and placed in a 60° C. incubator. At specific time intervals, 0.4 mL were taken and neutralized by 0.6 mL of a strong KOH solution to a pH above 10 in 1.5 mL microfuge tubes. Then 0.2 mL of the DNS Assay solution was added to each sample, which were then placed in a boiling water bath for ten minutes. […] The absorbance of the samples were then measured at 570 nm in a UV-Vis spectrophotometer and compared to a standard curve.

Cl [6M HCl, hydrochloric acid, reference compound]
rate in hydrolyzing seaweed [1]: about the same rate | rate in hydrolyzing switch grass [2]: about the same rate | pH change after switch grass hydrolysis [2]: increased

NCC(=O)O [6M Glycine—HCl, glycine hydrochloride]
hydrolysis rate [3]: equal to that of Oil Safe AR® | rate in hydrolyzing seaweed [1]: about the same rate | rate in hydrolyzing switch grass [2]: about the same rate | pH change after switch grass hydrolysis [2]: lowered

Reference: patent US9770045B2, “Preservation of animal feed and hydrolysis of polysaccharides using amino acids as salts or with acids” (priority 2015, dated 2017)
